Source: patent US5972955A, “Water soluble C-ring analogues of 20(S)-camptothecin” (Dr. Reddy's Research Foundation, priority 1996, dated 1999)
pIC50: −log10 of the molar value.

system: SF-268; test: NCI in vitro growth inhibition, CNS SF-268; assay type: cell-based; details: Homo sapiens, SF-268, 48 h, read-out: 50% Growth Inhibition (GI 50)
Protocol: (§1) Inoculates were allowed a preincubation period of 24 h at 37° C. for stabilization.

| Structure (SMILES) | GI50 [µM] |
| --- | --- |
| CC[C@@]1(O)C(=O)OCc2c1cc1n(c2=O)C(NO)c2cc3cc(O)ccc3nc2-1 (stereo partly drawn) [Example 11, 10-Hydroxy-5-hydroxylaminocamptothecin] | 2.45 |

system: H 460; test: NCI in vitro growth inhibition, NSLC H 460; assay type: cell-based; details: Homo sapiens, NCI-H460, read-out: 50% Growth Inhibition (GI 50); H 460, NSLC; 48 h
Protocol: as §1

| Structure (SMILES) | GI50 [µM] |
| --- | --- |
| CC[C@@]1(O)C(=O)OCc2c1cc1n(c2=O)C(NO)c2cc3cc(O)ccc3nc2-1 (stereo partly drawn) [Example 11, 10-Hydroxy-5-hydroxylaminocamptothecin] | 1.54 |

system: H 522; test: NCI in vitro growth inhibition, NSLC H 522; assay type: cell-based; details: Homo sapiens, NCI-H522, read-out: 50% Growth Inhibition (GI 50); H 522, NSLC; 48 h
Protocol: as §1

| Structure (SMILES) | GI50 [µM] |
| --- | --- |
| CC[C@@]1(O)C(=O)OCc2c1cc1n(c2=O)C(NO)c2cc3cc(O)ccc3nc2-1 (stereo partly drawn) [Example 11, 10-Hydroxy-5-hydroxylaminocamptothecin] | 5.37 |

system: HOP 62; test: NCI in vitro growth inhibition, NSLC HOP 62; assay type: cell-based; details: Homo sapiens, read-out: 50% Growth Inhibition (GI 50); HOP 62, NSLC; 48 h
Protocol: as §1

| Structure (SMILES) | GI50 [µM] |
| --- | --- |
| CC[C@@]1(O)C(=O)OCc2c1cc1n(c2=O)C(NO)c2cc3cc(O)ccc3nc2-1 (stereo partly drawn) [Example 11, 10-Hydroxy-5-hydroxylaminocamptothecin] | 7.41 |

system: MCF7/ADR; test: NCI in vitro growth inhibition, breast MCF7/ADR; assay type: cell-based; details: Homo sapiens, NCI/ADR-RES, read-out: 50% Growth Inhibition (GI 50), 48 h
Protocol: as §1

| Structure (SMILES) | GI50 [µM] |
| --- | --- |
| CC[C@@]1(O)C(=O)OCc2c1cc1n(c2=O)C(NO)c2cc3cc(O)ccc3nc2-1 (stereo partly drawn) [Example 11, 10-Hydroxy-5-hydroxylaminocamptothecin] | > 30 |

system: ACHN; test: NCI in vitro growth inhibition, renal ACHN; assay type: cell-based; details: Homo sapiens, read-out: 50% Growth Inhibition (GI 50), 48 h
Protocol: as §1

| Structure (SMILES) | GI50 [µM] |
| --- | --- |
| CC[C@@]1(O)C(=O)OCc2c1cc1n(c2=O)C(NO)c2cc3cc(O)ccc3nc2-1 (stereo partly drawn) [Example 11, 10-Hydroxy-5-hydroxylaminocamptothecin] | 3.16 |

system: T 47D; test: NCI in vitro growth inhibition, breast T 47D; assay type: cell-based; details: Homo sapiens, T47D, read-out: 50% Growth Inhibition (GI 50), 48 h
Protocol: as §1

| Structure (SMILES) | GI50 [µM] |
| --- | --- |
| CC[C@@]1(O)C(=O)OCc2c1cc1n(c2=O)C(NO)c2cc3cc(O)ccc3nc2-1 (stereo partly drawn) [Example 11, 10-Hydroxy-5-hydroxylaminocamptothecin] | 1.28 |

system: MOLT-4; test: NCI in vitro growth inhibition, leukemia MOLT-4; assay type: cell-based; details: Homo sapiens, read-out: 50% Growth Inhibition (GI 50); MOLT-4, leukemia; 48 h
Protocol: as §1

| Structure (SMILES) | GI50 [µM] |
| --- | --- |
| CC[C@@]1(O)C(=O)OCc2c1cc1n(c2=O)C(NO)c2cc3cc(O)ccc3nc2-1 (stereo partly drawn) [Example 11, 10-Hydroxy-5-hydroxylaminocamptothecin] | 0.01 |

system: M-14; test: NCI in vitro growth inhibition, melanoma M-14; assay type: cell-based; details: Homo sapiens, M14, read-out: 50% Growth Inhibition (GI 50); M-14, melanoma; 48 h
Protocol: as §1

| Structure (SMILES) | GI50 [µM] |
| --- | --- |
| CC[C@@]1(O)C(=O)OCc2c1cc1n(c2=O)C(NO)c2cc3cc(O)ccc3nc2-1 (stereo partly drawn) [Example 11, 10-Hydroxy-5-hydroxylaminocamptothecin] | 4.26 |

system: NCI's 60 human tumor cell line assay; test: NCI 60 human tumor cell line assay, mean growth inhibition (Table 1); assay type: cell-based; details: read-out: IC50 = the mean value of the minimum drug concentration of the agent required to produce 50% cell growth inhibition (GI50); mean over NCI's 60 human tumor cell lines; 48 h; Sulforhodamine B
Protocol: as §1
^a IC50 = the mean value of the minimum drug concentration (μm) of
NCI's 60 human tumor cell line assay.

| Structure (SMILES) | pIC50 |
| --- | --- |
| CC[C@@]1(O)C(=O)OCc2c1cc1n(c2=O)C(NO)c2cc3cc(O)ccc3nc2-1 (stereo partly drawn) [Example 11, 10-Hydroxy-5-hydroxylaminocamptothecin] | 5.00 |

system: 786-O; test: NCI in vitro growth inhibition, renal 786-O; assay type: cell-based; details: Homo sapiens, 786-0, read-out: 50% Growth Inhibition (GI 50), 48 h
Protocol: as §1

| Structure (SMILES) | GI50 [µM] |
| --- | --- |
| CC[C@@]1(O)C(=O)OCc2c1cc1n(c2=O)C(NO)c2cc3cc(O)ccc3nc2-1 (stereo partly drawn) [Example 11, 10-Hydroxy-5-hydroxylaminocamptothecin] | 2.69 |

system: SF-539; test: NCI in vitro growth inhibition, CNS SF-539; assay type: cell-based; details: Homo sapiens, read-out: 50% Growth Inhibition (GI 50); SF-539, CNS; 48 h
Protocol: as §1

| Structure (SMILES) | GI50 [µM] |
| --- | --- |
| CC[C@@]1(O)C(=O)OCc2c1cc1n(c2=O)C(NO)c2cc3cc(O)ccc3nc2-1 (stereo partly drawn) [Example 11, 10-Hydroxy-5-hydroxylaminocamptothecin] | 3.16 |

system: SF 295; test: NCI in vitro growth inhibition, CNS SF 295; assay type: cell-based; details: Homo sapiens, read-out: 50% Growth Inhibition (GI 50); SF 295, CNS; 48 h
Protocol: as §1

| Structure (SMILES) | GI50 [µM] |
| --- | --- |
| CC[C@@]1(O)C(=O)OCc2c1cc1n(c2=O)C(NO)c2cc3cc(O)ccc3nc2-1 (stereo partly drawn) [Example 11, 10-Hydroxy-5-hydroxylaminocamptothecin] | 4.89 |

system: MCF-7; test: NCI in vitro growth inhibition, breast MCF-7; assay type: cell-based; details: Homo sapiens, MCF7, read-out: 50% Growth Inhibition (GI 50); MCF-7, breast; 48 h
Protocol: as §1

| Structure (SMILES) | GI50 [µM] |
| --- | --- |
| CC[C@@]1(O)C(=O)OCc2c1cc1n(c2=O)C(NO)c2cc3cc(O)ccc3nc2-1 (stereo partly drawn) [Example 11, 10-Hydroxy-5-hydroxylaminocamptothecin] | 4.07 |

system: LOX IMVI; test: NCI in vitro growth inhibition, melanoma LOX IMVI; assay type: cell-based; details: Homo sapiens, read-out: 50% Growth Inhibition (GI 50), 48 h
Protocol: as §1

| Structure (SMILES) | GI50 [µM] |
| --- | --- |
| CC[C@@]1(O)C(=O)OCc2c1cc1n(c2=O)C(NO)c2cc3cc(O)ccc3nc2-1 (stereo partly drawn) [Example 11, 10-Hydroxy-5-hydroxylaminocamptothecin] | 2.69 |

system: HL 60; test: NCI in vitro growth inhibition, leukemia HL 60; assay type: cell-based; details: Homo sapiens, read-out: 50% Growth Inhibition (GI 50); HL 60, leukemia; 48 h
Protocol: as §1

| Structure (SMILES) | GI50 [µM] |
| --- | --- |
| CC[C@@]1(O)C(=O)OCc2c1cc1n(c2=O)C(NO)c2cc3cc(O)ccc3nc2-1 (stereo partly drawn) [Example 11, 10-Hydroxy-5-hydroxylaminocamptothecin] | 1.86 |

system: H 23; test: NCI in vitro growth inhibition, NSLC H 23; assay type: cell-based; details: Homo sapiens, NCI-H23, read-out: 50% Growth Inhibition (GI 50); H 23, NSLC; 48 h
Protocol: as §1

| Structure (SMILES) | GI50 [µM] |
| --- | --- |
| CC[C@@]1(O)C(=O)OCc2c1cc1n(c2=O)C(NO)c2cc3cc(O)ccc3nc2-1 (stereo partly drawn) [Example 11, 10-Hydroxy-5-hydroxylaminocamptothecin] | 4.16 |

system: SK MEL-5; test: NCI in vitro growth inhibition, melanoma SK MEL-5; assay type: cell-based; details: Homo sapiens, read-out: 50% Growth Inhibition (GI 50); SK MEL-5, melanoma; 48 h
Protocol: as §1

| Structure (SMILES) | GI50 [µM] |
| --- | --- |
| CC[C@@]1(O)C(=O)OCc2c1cc1n(c2=O)C(NO)c2cc3cc(O)ccc3nc2-1 (stereo partly drawn) [Example 11, 10-Hydroxy-5-hydroxylaminocamptothecin] | 15 |

system: SR; test: NCI in vitro growth inhibition, leukemia SR; assay type: cell-based; details: Homo sapiens, read-out: 50% Growth Inhibition (GI 50), 48 h
Protocol: as §1

| Structure (SMILES) | GI50 [µM] |
| --- | --- |
| CC[C@@]1(O)C(=O)OCc2c1cc1n(c2=O)C(NO)c2cc3cc(O)ccc3nc2-1 (stereo partly drawn) [Example 11, 10-Hydroxy-5-hydroxylaminocamptothecin] | 0.1 |

system: UACC 62; test: NCI in vitro growth inhibition, melanoma UACC 62; assay type: cell-based; details: Homo sapiens, read-out: 50% Growth Inhibition (GI 50); UACC 62, melanoma; 48 h
Protocol: as §1

| Structure (SMILES) | GI50 [µM] |
| --- | --- |
| CC[C@@]1(O)C(=O)OCc2c1cc1n(c2=O)C(NO)c2cc3cc(O)ccc3nc2-1 (stereo partly drawn) [Example 11, 10-Hydroxy-5-hydroxylaminocamptothecin] | 4.16 |

system: CAKI-1; test: NCI in vitro growth inhibition, renal CAKI-1; assay type: cell-based; details: Homo sapiens, read-out: 50% Growth Inhibition (GI 50); CAKI-1, renal; 48 h
Protocol: as §1

| Structure (SMILES) | GI50 [µM] |
| --- | --- |
| CC[C@@]1(O)C(=O)OCc2c1cc1n(c2=O)C(NO)c2cc3cc(O)ccc3nc2-1 (stereo partly drawn) [Example 11, 10-Hydroxy-5-hydroxylaminocamptothecin] | 4.26 |
